Data taken from PubChem BioAssay AID330 (DTP/NCI, 2004).
“And” between values parts separate entries of the source, which are not always exact repeats. Equal entries are not always repeated. Toxic doses and inconclusive results are not listed.

Test system: P388 leukemia ip, CD2F1 mice, survival T/C
Experiment: NCI In Vivo Anticancer Drug Screen. Data for tumor model P388 Leukemia (intraperitoneal) in CD2F1 (CDF1) mice
Conditions: endpoint: median survival time, higher = longer survival
Method in brief: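 Mice carrying the transplanted tumor received test compound or vehicle. Survival was recorded in each group, and the value is the treated-group measurement divided by that of the vehicle-treated control group.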

[1] = dose: 50.0 mg/kg/injection, schedule: Q01DX005 (ip), vehicle: Klucel (hydroxypropylcellulose) (HPC)
[2] = dose: 50.0 mg/kg/injection, schedule: Q01DX009 (ip), vehicle: saline
[3] = dose: 100.0 mg/kg/injection, schedule: Q01DX009 (ip), vehicle: saline
[4] = dose: 50.0 mg/kg/injection, schedule: Q01DX009 (ip), vehicle: Klucel (hydroxypropylcellulose) (HPC)
[5] = dose: 100.0 mg/kg/injection, schedule: Q01DX009 (ip), vehicle: Klucel (hydroxypropylcellulose) (HPC)
[6] = dose: 200.0 mg/kg/injection, schedule: Q01DX009 (ip), vehicle: Klucel (hydroxypropylcellulose) (HPC)
[7] = dose: 60.0 mg/kg/injection, schedule: Q01DX005 (ip), vehicle: Klucel (hydroxypropylcellulose) (HPC)
[8] = dose: 120.0 mg/kg/injection, schedule: Q01DX005 (ip), vehicle: Klucel (hydroxypropylcellulose) (HPC)
[9] = dose: 240.0 mg/kg/injection, schedule: Q01DX005 (ip), vehicle: Klucel (hydroxypropylcellulose) (HPC)
[10] = dose: 200.0 mg/kg/injection, schedule: Q01DX009 (ip), vehicle: saline
[11] = dose: 200.0 mg/kg/injection, schedule: Q04DX002 (ip), vehicle: saline with Tween-80
[12] = dose: 400.0 mg/kg/injection, schedule: Q04DX002 (ip), vehicle: saline with Tween-80
[13] = dose: 100.0 mg/kg/injection, schedule: Q01DX005 (ip), vehicle: Klucel (hydroxypropylcellulose) (HPC)
[14] = dose: 200.0 mg/kg/injection, schedule: Q01DX005 (ip), vehicle: Klucel (hydroxypropylcellulose) (HPC)
[15] = dose: 60.0 mg/kg/injection, schedule: Q01DX005 (ip), vehicle: saline with Tween-80
[16] = dose: 120.0 mg/kg/injection, schedule: Q01DX005 (ip), vehicle: saline with Tween-80
[17] = dose: 240.0 mg/kg/injection, schedule: Q01DX005 (ip), vehicle: saline with Tween-80
[18] = dose: 50.0 mg/kg/injection, schedule: Q01DX005 (ip), vehicle: saline with Tween-80
[19] = dose: 100.0 mg/kg/injection, schedule: Q01DX005 (ip), vehicle: saline with Tween-80
[20] = dose: 200.0 mg/kg/injection, schedule: Q01DX005 (ip), vehicle: saline with Tween-80
[21] = dose: 50.0 mg/kg/injection, schedule: Q01DX005 (ip), vehicle: saline
[22] = dose: 100.0 mg/kg/injection, schedule: Q01DX005 (ip), vehicle: saline

C[N+]1=C(/C=C/Nc2cccc(N/C=C/C3=[N+](C)c4ccccc4C3(C)C)c2)C(C)(C)c2ccccc21
T/C (dose: 12.5 mg/kg/injection, schedule: Q01DX005 (ip), vehicle: Klucel (hydroxypropylcellulose) (HPC)): 97 % of control | T/C (dose: 25.0 mg/kg/injection, schedule: Q01DX005 (ip), vehicle: Klucel (hydroxypropylcellulose) (HPC)): 97 % of control | T/C [1]: 105 % of control

O=C(S[Si](c1ccccc1)(c1ccccc1)c1ccccc1)c1ccccc1
T/C [2]: 102 % of control | T/C [3]: 110 % of control

Cc1cc(C2(c3cc(C)c(O)c(C)c3)CC3CCC2C3)cc(C)c1O (configuration not stated)
T/C [4]: 88 % of control | T/C [5]: 97 % of control | T/C [6]: 93 % of control

CCOC(=O)C(Nc1cc([N+](=O)[O-])ccc1C(=O)N1CCCCC1)(C(=O)OCC)N1CCCCC1
T/C [7]: 96 % of control | T/C [8]: 92 % of control | T/C [9]: 89 % of control

C[Si](C)(C)[Si](C)(C)C
T/C [2]: 98 % of control | T/C [3]: 111 % of control | T/C [10]: 102 % of control

CC12C(=O)C(Br)C1CC2S(=O)(=O)O (configuration not stated)
T/C (dose: 25.0 mg/kg/injection, schedule: Q04DX002 (ip), vehicle: saline): 97 % of control | T/C (dose: 50.0 mg/kg/injection, schedule: Q04DX002 (ip), vehicle: saline): 95 % of control | T/C (dose: 100.0 mg/kg/injection, schedule: Q04DX002 (ip), vehicle: saline): 98 % of control | T/C [11]: 96 % of control | T/C [12]: 99 % of control

CC(=O)OCC12C3CC(=O)OC1C(OC(=O)C=C(C)C)C1C(C)=CC(=O)C(OC(C)=O)C1(C)C2C(=O)C(OC(C)=O)C3C (configuration not stated)
T/C (dose: 0.5 mg/kg/injection, schedule: Q01DX009 (ip), vehicle: distilled water + Tween-80): 100 % of control | T/C (dose: 1.0 mg/kg/injection, schedule: Q01DX009 (ip), vehicle: distilled water + Tween-80): 97 % of control | T/C (dose: 2.0 mg/kg/injection, schedule: Q01DX009 (ip), vehicle: distilled water + Tween-80): 102 % of control | T/C (dose: 4.0 mg/kg/injection, schedule: Q01DX009 (ip), vehicle: distilled water + Tween-80): 101 % of control | T/C (dose: 8.0 mg/kg/injection, schedule: Q01DX009 (ip), vehicle: distilled water + Tween-80): 102 % of control

CCOC(=O)C1=C(C)NC(=O)NC1c1cc(OC)c(OC)c(OC)c1 (configuration not stated)
T/C [1]: 98 % of control | T/C [13]: 96 % of control | T/C [14]: 94 % of control

[O]=[Nb]
T/C (dose: 2.5 mg/kg/injection, schedule: Q01DX009 (ip), vehicle: saline with Tween-80): 100 % of control | T/C (dose: 5.0 mg/kg/injection, schedule: Q01DX009 (ip), vehicle: saline with Tween-80): 100 % of control

O=c1c(=NO)c(=O)c2ccccc12
T/C (dose: 100.0 mg/kg/injection, schedule: Q01DX001 (ip), vehicle: saline with Tween-80): 103 % of control | T/C (dose: 200.0 mg/kg/injection, schedule: Q01DX001 (ip), vehicle: saline with Tween-80): 110 % of control

CC1=CC(=O)[C@@H](O)[C@]2(C)[C@H]3[C@@]4(O)OC[C@]35[C@H]([C@@H](CO)[C@H]4O)[C@@H](OC3OC(CO)C(O)C(O)C3O)C(=O)O[C@@H]5C[C@@H]12 (some centres not stated)
T/C (dose: 0.25 mg/kg/injection, schedule: Q01DX005 (ip), vehicle: Klucel (hydroxypropylcellulose) (HPC)): 99 % of control | T/C (dose: 0.5 mg/kg/injection, schedule: Q01DX005 (ip), vehicle: Klucel (hydroxypropylcellulose) (HPC)): 99 % of control | T/C (dose: 1.0 mg/kg/injection, schedule: Q01DX005 (ip), vehicle: Klucel (hydroxypropylcellulose) (HPC)): 98 % of control | T/C (dose: 1.87 mg/kg/injection, schedule: Q01DX005 (ip), vehicle: Klucel (hydroxypropylcellulose) (HPC)): 96 % of control | T/C (dose: 2.0 mg/kg/injection, schedule: Q01DX005 (ip), vehicle: Klucel (hydroxypropylcellulose) (HPC)): 100 % of control

Cc1cccc(C)c1Nc1nnc(-c2ccccc2)s1
T/C (dose: 15.0 mg/kg/injection, schedule: Q01DX005 (ip), vehicle: saline with Tween-80): 104 % of control | T/C (dose: 30.0 mg/kg/injection, schedule: Q01DX005 (ip), vehicle: saline with Tween-80): 103 % of control | T/C [15]: 94 % of control

O=C1CSC(c2cc(F)ccc2F)N1c1nncs1 (configuration not stated)
T/C [15]: 107 % of control | T/C [16]: 109 % of control | T/C [17]: 104 % of control

CCC#CCC1(CC#CCC)CC1C (configuration not stated)
T/C [18]: 100 % of control | T/C [19]: 99 % of control | T/C [20]: 107 % of control

CN(C)CCOC(=O)C1CC2(C1)CC(C(=O)OCCN(C)C)C2 (configuration not stated)
T/C [1]: 95 % of control | T/C [13]: 97 % of control | T/C [14]: 103 % of control

CN(C)CCN1c2ccccc2Oc2ccccc21
T/C [21]: 104 % of control | T/C [22]: 95 % of control

COc1ccc(C(C)c2cc3c(cc2OCCOC(C)=O)OCO3)cc1 (configuration not stated)
T/C (dose: 100.0 mg/kg/injection, schedule: Q04DX002 (ip), vehicle: saline with Tween-80): 103 % of control | T/C [11]: 100 % of control | T/C [12]: 100 % of control

CCOc1c(OC)cc(-c2n[nH]c(=S)o2)cc1OC
T/C (dose: 100.0 mg/kg/injection, schedule: Q04DX003 (ip), vehicle: Klucel (hydroxypropylcellulose) (HPC)): 101 % of control | T/C (dose: 200.0 mg/kg/injection, schedule: Q04DX003 (ip), vehicle: Klucel (hydroxypropylcellulose) (HPC)): 95 % of control | T/C (dose: 400.0 mg/kg/injection, schedule: Q04DX003 (ip), vehicle: Klucel (hydroxypropylcellulose) (HPC)): 100 % of control

CC(C)C1OCN2C(C)CCCC12 (configuration not stated)
T/C [21]: 105 % of control | T/C [22]: 111 % of control | T/C (dose: 200.0 mg/kg/injection, schedule: Q01DX005 (ip), vehicle: saline): 111 % of control

Cc1cccc(Nc2n[nH]c(N)n2)c1
T/C [4]: 91 % of control | T/C [5]: 94 % of control

Cc1c([O-])[n+]2cccc3ccn(c1=O)c32
T/C [7]: 97 % of control | T/C [8]: 100 % of control | T/C [9]: 94 % of control

CN1CCOC(=O)C(C#N)=C1c1ccccc1
T/C [15]: 110 % of control | T/C [16]: 108 % of control | T/C [17]: 98 % of control

CN(C)c1ccc(C2=CC(c3ccc(N(C)C)cc3)(c3ccc(C(F)(F)F)cc3)C=C(c3ccc(N(C)C)cc3)S2)cc1
T/C (dose: 100.0 mg/kg/injection, schedule: Q01DX001 (ip), vehicle: Klucel (hydroxypropylcellulose) (HPC)): 101 % of control | T/C (dose: 200.0 mg/kg/injection, schedule: Q01DX001 (ip), vehicle: Klucel (hydroxypropylcellulose) (HPC)): 92 % of control

O=C(NC1CCCCC1)O/N=C/c1ccc2c(c1)OCO2
T/C (dose: 50.0 mg/kg/injection, schedule: Q01DX009 (ip), vehicle: saline with Tween-80): 93 % of control | T/C (dose: 100.0 mg/kg/injection, schedule: Q01DX009 (ip), vehicle: saline with Tween-80): 86 % of control | T/C (dose: 200.0 mg/kg/injection, schedule: Q01DX009 (ip), vehicle: saline with Tween-80): 86 % of control

CC(=O)OCC#CCN1CCCCCC1
T/C [21]: 91 % of control | T/C [22]: 92 % of control

C/C=C(/CN/C(=C\[N+](=O)[O-])c1ccccc1)c1ccccc1
T/C [15]: 102 % of control | T/C [16]: 100 % of control | T/C [17]: 95 % of control

CCCSc1nn2cc(NC(=O)OC)nc2s1
T/C [18]: 97 % of control | T/C [19]: 100 % of control | T/C [20]: 103 % of control

CCc1cc(Cc2cc(CC)cc(C(C)(C)C)c2O)c(O)c(C(C)(C)C)c1
T/C [5]: 107 % of control | T/C [6]: 90 % of control | T/C (dose: 400.0 mg/kg/injection, schedule: Q01DX009 (ip), vehicle: Klucel (hydroxypropylcellulose) (HPC)): 104 % of control and 90 % of control

N#CC1=C(N)OC(c2ccccc2)=C(C#N)C1c1ccccc1 (configuration not stated)
T/C [15]: 98 % of control | T/C [16]: 96 % of control | T/C [17]: 91 % of control

CCOC(=O)C(=O)Cc1ccc(C(=N)N)cc1
T/C [2]: 101 % of control | T/C [3]: 96 % of control | T/C [10]: 88 % of control

O=C(Nc1nc2ccc([N+](=O)[O-])cc2s1)C(F)(F)C(F)(F)F
T/C (dose: 6.25 mg/kg/injection, schedule: Q01DX009 (ip), vehicle: saline): 112 % of control | T/C (dose: 12.5 mg/kg/injection, schedule: Q01DX009 (ip), vehicle: saline): 112 % of control | T/C (dose: 25.0 mg/kg/injection, schedule: Q01DX009 (ip), vehicle: saline): 106 % of control
